The subject of data set [1] is Bel-7402 tumor cells. Nature of the data set: Binding of FITC labeled polypeptides to integrin-expressing tumor cells by flow cytometry. Details: unit not given here. To be noted: FITC labeled polypeptide, dosage 1 μg/μl, Bel-7402 cells, 25 min. How it is done:
Analysis of the binding of polypeptide s and integrin by flow cytometry. Bel-7402 tumor cells were used, which can express integrin. The cells were cultured in a 24-well plate, and the cells were collected and washed with ice-cold PBS twice. Before labeling, the cells were suspended in PBS +1% BSA, maintained for 30 min, added with 1 μl FITC labeled polypeptide s (P1, P2, P3, P4, P5, P6, P7, P8, P9, P10, P11, P12, P13, P14, P15, P16, RGD and ES-2) for reaction for 25 min. After labeling, the cells were collected and washed twice with PBS, suspended again in 400 μl PBS and analysis was conducted with a flow cytometry (Becton Dickinson, USA). FITC fluorescence was determined at FL1 channel The cells with FITC feature would be further analyzed.

Data set [2] is described as follows: Half-life of polypeptides in plasma at 37° C. (HPLC). It counts as in vitro ADME. To be noted: 800 μg/ml, 20 μl injected on HPLC. How it is done: Survey on the half-life of polypeptides in plasma at 37° C. after modification. Preparation of blood drug samples: after crude drug (volume V) (800 ug/ml) +1V plasma were mixed and diluted with 2V water evenly, incubated for 0, 5, 30 min at 37° C. respectively, immediately heated at 80° C. for 30 min; the negative control: after 1V plasma were diluted and mixed with 3 V water evenly, and heated for 30 min at 80° C. The positive control group: after 1V crude drug (800 ug/ml) were diluted and mixed evenly with 3V water, heated for 30 min at 80° C. The samples were the modified products, […] at 14000 rpm for 10 min. The supernatant was fetched for HPLC analysis with the injection size of 20 ul.

The subject of data set [3] is human liver cancer SGC7901. In words: In vivo anti-tumor test, SGC7901 xenograft. To be noted: SGC7901 in nude mice, 3 mg/kg/d contralateral subcutaneous injection, 10th day. How it is done: (§1) The cultured human liver cancer SGC7901 was treated with 0.05% trypsin, centrifuged at 1000 rpm for 5 min, suspended again in PBS, inoculated subcutaneously with 0.1 ml of 5×10^5 cells on the body sides of nude mice (6-8 weeks). When the average tumor size reached 100 mm^3-200 mm^3, the mice were randomly divided into three groups, 7 mice for each group, of which, one group of mice were treated with RGD-ED, one group were treated with RGD-ED modified with liposome, and the third group were treated with RGD-ED modified with polyethylene glycol, with the doses of 3 mg/kg/d for the three groups, and the control group of mice were subject to PBS injection. The treatment method was contralateral subcutaneous injection of the inoculated tumors.
as §1, with “with liposome-modified RGD-ED,” for “with RGD-ED modified with liposome,”, “with” for “with RGD-ED modified with”, “polyethylene glycol-modified RGD-ED,” for “polyethylene glycol,”, “injection. […]” for “injection. The treatment method was contralateral subcutaneous injection of the inoculated tumors.”

For data set [4], the system named is NIH 3T3 cells. Nature of the data set: Cell proliferation analysis on non-endothelial cells. The class given is cell-based. To be noted: non-endothelial NIH 3T3 cells, 48 h. How it is done: The culture of BCE cells and NIH 3T3 cells, method: the culture solution DMEM contained 10% inactivated calf serum (BCS), 1% antibiotics and 3 ng/ml bFGF. Cell proliferation analysis method is as follows: washed the cells with PBS, digested with trypsin, added with culture solution suspension cells and centrifuged and collected cells, and regulated the cell concentrations to 25,000 cells/ml. The cells were moved to 6-well plates (0.5 ml/well) and cultured for 24 h. Replaced the culture medium as 1 ml DMEM, 5% BCS, 1% antibiotics, 1 ng/ml bFGF. Different doses of samples were added to each hole, and further cultured for 48 h, digested the cells with trypsase, re-suspended in PBS, fixed with 70% ice-cold ethanol and stained with 7-AAD, and then conducted analysis with flow cytometry.

Data set [5] relates to B16F10 melanoma cells. In words: In vivo anti-tumor test, B16F10 melanoma. The settings on record: B16F10 in C57BL/6 mice, 5 mg/kg/d contralateral subcutaneous injection, 9th day. As for the experimental part:
The cultured B16F10 melanoma cells were treated with 0.05% trypsin, centrifuged at 1000 rpm for 5 min, suspended again in PBS, inoculated subcutaneously with 0.1 ml of 5×10^5 cells at the body sides of C57BL/6 mice (6-8 weeks). When the average tumor size reached 200 mm3-300 mm3, the mice were randomly divided into two groups, 7 mice for each group, of which, one group of mice were treated with RGD-ED, and the other group were treated with ED not containing RGD, with the doses of 5 mg/kg/d for the two groups, and the control group of mice were subject to PBS injection. The treatment method was contralateral subcutaneous injection of the inoculated tumors.

The subject of data set [6] is CAMs. In words: CAM analysis of anti-angiogenic activity. The class given is in vivo, chick. As for the experimental part: To detect the in vivo anti-angiogenic activity, CAM analysis was carried out. All the tests were carried out on the ultra-clean platform under sterile conditions. The 6-day disinfected chick embryos were cultured under the condition of 37° C., 90% humidity. After 2 days, the top of each egg was punched and the reagents were dripped into the sterile Whatman filter paper, then put on the CAMs vascular clustered area, cultivated for 48 hours, and observed the chick embryos and CAMs and took pictures.

Residues, ends and D or L forms follow the SMILES beside them. No end group written: not given here. *: point of attachment. Palmitoyl = CCCCCCCCCCCCCCCC(=O)*

As for RGDIVRRADRAAVPRGD [P5], the “Binding Value” in data set [1] came to 59.40.
In the case of “Ile-Val-Arg-Arg-Ala-Asp-Arg-Ala-Ala-Val-Pro-linker-Ala-Cys-Asp-Cys-Arg-Gly-Asp-Cys-Phe-Cys [P11]”, the “Binding Value” in data set [1] worked out at 60.20.
Same read-out and setting: with “ACDCRGDCFCIVRRADRAAVPACDCRGDCFC (cysteine pairing not given here) [P13]” the figure was 59.25; with “Ile-Val-Arg-Arg-Ala-Asp-Arg-Ala-Ala-Val-Pro-linker-Arg-Gly-Asp [P3]”, 58.96; with RGDIVRRADRAAVP [P2], 62.15.
The same measure, in the same setting: with “ACDCRGDCFCIVRRADRAAVP (cysteine pairing not given here) [P10]” the figure was 63.28.
`CCCCCCCCCCCCCCCC(=O)N[C@@H](CCCNC(=N)N)C(=O)NCC(=O)N[C@@H](CC(=O)O)C(=O)NCC(=O)NCC(=O)NCC(=O)NCC(=O)N[C@H](C(=O)N[C@H](C(=O)N[C@@H](CCCNC(=N)N)C(=O)N[C@@H](CCCNC(=N)N)C(=O)N[C@@H](C)C(=O)N[C@@H](CC(=O)O)C(=O)N[C@@H](CCCNC(=N)N)C(=O)N[C@@H](C)C(=O)N[C@@H](C)C(=O)N[C@H](C(=O)N1CCC[C@H]1C(=O)O)C(C)C)C(C)C)[C@@H](C)CC` [Palmitic acid-modified substance] (Palmitoyl-RGDGGGGIVRRADRAAVP-OH; C-terminus assumed): in data set [2], the half-life stood at 12 min.
In the case of “Ala-Cys-Asp-Cys-Arg-Gly-Asp-Cys-Phe-Cys-linker-Ile-Val-Arg-Arg-Ala-Asp-Arg-Ala-Ala-Val-Pro-linker-Ala-Cys-Asp-Cys-Arg-Gly-Asp-Cys-Phe-Cys [P16]”, the “Binding Value” in data set [1] came out at 66.12.
The same measure, in the same setting: with “arginine-glycine-aspartic acid [RGD, reference compound]” the figure was 59.45.
Still for that read-out and setting: the figure for “IVRRADRAAVPACDCRGDCFC (cysteine pairing not given here) [P12]” is 67.28.
Same read-out and setting: with “Arg-Gly-Asp-linker-Ile-Val-Arg-Arg-Ala-Asp-Arg-Ala-Ala-Val-Pro-Arg-Gly-Asp [P8]” the figure was 58.30.
Take “Arg-Gly-Asp-linker-Ile-Val-Arg-Arg-Ala-Asp-Arg-Ala-Ala-Val-Pro-linker-Arg-Gly-Asp [P6]”: the “Binding Value” in data set [1] is reported as 60.27.
Consider “Ala-Cys-Asp-Cys-Arg-Gly-Asp-Cys-Phe-Cys-Ile-Val-Arg-Arg-Ala-Asp-Arg-Ala-Ala-Val-Pro-linker-Ala-Cys-Asp-Cys-Arg-Gly-Asp-Cys-Phe-Cys [P15]”, for which the “Binding Value” in data set [1] is on record as 64.11.
Still for that read-out and setting: the figure for “Ala-Cys-Asp-Cys-Arg-Gly-Asp-Cys-Phe-Cys-linker-Ile-Val-Arg-Arg-Ala-Asp-Arg-Ala-Ala-Val-Pro-Ala-Cys-Asp-Cys-Arg-Gly-Asp-Cys-Phe-Cys [P14]” is 58.32.
Turning to “designed angiogenesis inhibitor: ED polypeptide joined to a sequence containing Arg-Gly-Asp, expressed recombinantly in E. coli; exact sequence not stated [RGD-ED]”, the tumor inhibition rate in data set [3] is on record as 68%; in data set [5], 58%. The “inhibitory effect on NIH 3T3 cell proliferation” value in data set [4] is reported as “no inhibitory effect”. For the same compound, in data set [6] (0.05 μg, 0.1 μg and 0.2 μg, 48 hours), the “inhibition of neovascularization and angiogenesis in CAM” value is “significantly inhibit”. For the same compound, the “chick embryo death in CAM test” value in data set [6] (0.5 μg) is listed as “cause chick embryo death”. The “inhibition of angiogenesis in CAM” value in data set [6] (0.5 μg, 48 hours) is recorded as “completely inhibit”.
With “Arg-Gly-Asp-Ile-Val-Arg-Arg-Ala-Asp-Arg-Ala-Ala-Val-Pro-linker-Arg-Gly-Asp [P7]”, in data set [1], the “Binding Value” came to 60.25.
IVRRADRAAVP [ED, reference compound]: in data set [5], the tumor inhibition rate is listed as 28%. Moreover, in data set [1], the “Binding Value” amounted to 18.35.
As to RGDGGGGIVRRADRAAVP [P1], in data set [2], the half-life was found to be 7 min. Further, the “Binding Value” in data set [1] is given as 63.21.
“Ala-Cys-Asp-Cys-Arg-Gly-Asp-Cys-Phe-Cys-linker-Ile-Val-Arg-Arg-Ala-Asp-Arg-Ala-Ala-Val-Pro [P9]”: the “Binding Value” in data set [1] was 66.04.
Same read-out and setting: the figure for IVRRADRAAVPRGD [P4] is 60.13.

A word on the half-life: it is the time needed for the level to fall by half in the phase considered.

The values above are taken from US20100305303A1, “INHIBITING AGENT FOR INHIBITION OF ANGIOGENESIS, A METHOD FOR PREPARING THE AGENT, A METHOD FOR MODIFYING THE AGENT AND ITS USE FOR MANUFACTURING A MEDICAMENT FOR TREATING TUMOR” (priority 2007, published 2010).
